According to ChEMBL document CHEMBL6109124, “Identification of effective anti-osteosarcoma agents via screening of an in-house NQO1-targeted compound library” (Bioorg Med Chem, 2025):

Experiments:
HOS-TE85 [1] = assay: Cytotoxicity against human MNNG cells assessed as cell growth inhibition at 10 uM measured after 72 hrs by MTT assay relative to control; format: functional; details: read-out: GI
HOS-TE85 [2] = assay: Cytotoxicity against human MNNG cells assessed as cell growth inhibition at 1 uM measured after 72 hrs by MTT assay relative to control; format: functional; details: read-out: GI
[3] = Selectivity index, ratio of IC50 for cytotoxicity against HUVEC to IC50 for cytotoxicity against human MNNG cells; format: toxicity, cell-based; details: HUVEC and human MNNG cells, read-out: Ratio IC50
HOS-TE85 [4] = assay: Cytotoxicity against human MNNG cells assessed as cell growth inhibition measured after 72 hrs by MTT assay; format: functional, cell-based; details: HOS-TE85, 72 h
[5] = Cytotoxicity against HUVEC assessed as cell growth inhibition measured after 72 hrs by MTT assay; format: toxicity, cell-based; details: human, HUVEC cells

Compound `Cc1ccc2c(c1)-c1nc(C#N)c(C#N)nc1C2=O` has an inhibition of growth at 10 µM (HOS-TE85 [1]) of 99.9%, an inhibition of growth at 1 µM (HOS-TE85 [2]) of 35.4% and a selectivity ratio [3] of 2.08. For the same compound, the IC50 (HOS-TE85 [4]) was 1.85 µM and the IC50 at 72 h [5] was 3.85 µM.
